The values below come from US5145951A, “Peptides retroviral protease inhibitors comprising 2-amino-2-methylpropionic acid” (priority 1990, dated 1992).

Starred links: 1 amine or outer side, 2 acyl side, 3 side chain; linkers in the order of their positions; H or OH if unused. Non-standard residues stand in square brackets, D forms with d. Residues, ends and D or L forms follow the SMILES beside them. *: point of attachment. X1 = CC(C)C(C[C@H](O)[C@H](CC1CCCCC1)N[*:1])C(=O)[*:2]; NHCH2(2-pyridyl) = c1ccc(CN*)nc1; Boc = CC(C)(C)OC(=O)*; Aib = CC(C)(N)C(=O)O

The assay has as its target T1, purified HIV protease (Human immunodeficiency virus type 1 group M subtype B, UniProt P04585).
T1 construct: purified HIV protease was incubated with synthetic peptide
The experiment in a line: HIV-specific protease enzyme test (RP-HPLC analysis of cleavage of a synthetic Gag peptide). Particulars: substance concentration causing 50% inhibition of protease activity; synthetic peptide substrate imitating Gag cleavage site. Type of assay: biochemical. As to the method: The results of the examples shown below were determined by the HIV test system described in the following references [compare Hansen, J., Billich, S., Schulze, T., Sukro, S. and Molling, K. (1988), EMBO Journal, Vol. 7, No. 6, pp. 1785-1791]: purified HIV protease was incubated with synthetic peptide which imitates a cleavage site in the Gag precursor protein and represents an in vivo cleavage site of the HIV protease. The resulting cleavage products of the synthetic peptide were analyzed by means of Reverse Phase High Performance Liquid Chromatography (RP-HPLC). The IC50 values indicated relate to the substance concentration which causes a 50% inhibition of the protease activity under the abovementioned test conditions.
`CC[C@H](C)[C@H](NC(=O)C(C[C@H](O)[C@H](CC1CCCCC1)NC(=O)[C@H](CC(N)=O)NC(=O)C(C)(C)NC(=O)OC(C)(C)C)C(C)C)C(=O)NCc1ccccn1` (stereo partly drawn) [Example I, Nα-{Nδ-{Nα-{1-[2-(1,1-dimethylethoxycarbonyl)amino-2-methyl]propanoyl}-(S)-asparaginyl}-1-[5-(S)-amino-6-cyclohexyl-4-(S)-hydroxy-2-(1-methyl)ethyl]-hexanoyl}-(S)-isoleucinyl-2-pyridylmethylamide]: the IC50 (commonly the concentration at which inhibition is half-maximal) turned out to be 500 nM.
For `CC[C@H](C)[C@H](NC(=O)C(C[C@H](O)[C@H](CC1CCCCC1)NC(=O)C(C)(C)NC(=O)OC(C)(C)C)C(C)C)C(=O)NCc1ccccn1` (stereo partly drawn) [Example IV, Nα-{Nδ-{1-[2-(1,1-dimethylethoxycarbonyl)amino-2-methyl]propanoyl}-1-[5-(S)-amino-6-cyclohexyl-4-(S)-hydroxy-2-(1-methyl)ethoyl]hexanoyl}-(S)-isoleucinyl-2-pyridylmethylamide], the IC50 was 100 nM.
Then `CC[C@H](C)[C@H](NC(=O)C(C[C@H](O)[C@H](CC1CCCCC1)NC(=O)[C@@H](NC(=O)C(C)(C)NC(=O)OC(C)(C)C)C(C)C)C(C)C)C(=O)NCc1ccccn1` (some centres unmarked) [V], with 50 nM.
Then `CC[C@H](C)[C@H](NC(=O)C(C[C@H](O)[C@H](CC1CCCCC1)NC(=O)[C@H](CC(N)=O)NC(=O)[C@H](Cc1ccccc1)NC(=O)[C@H](CO)NC(=O)C(C)(C)NC(=O)OC(C)(C)C)C(C)C)C(=O)NCc1ccccn1` (some centres unmarked) [III] (Boc-[Aib]SFN[X1]I-{NHCH2(2-pyridyl)}), with 5 nM; and `CC[C@H](C)[C@H](NC(=O)C(C[C@H](O)[C@H](CC1CCCCC1)NC(=O)[C@H](CC(N)=O)NC(=O)[C@H](Cc1ccccc1)NC(=O)C(C)(C)NC(=O)OC(C)(C)C)C(C)C)C(=O)NCc1ccccn1` (some centres unmarked) [II] (Boc-[Aib]FN[X1]I-{NHCH2(2-pyridyl)}), with 50 nM.
